Counter-ions that a name gives are not always drawn. Like-named read-outs stand apart in the source and are kept apart here.
Assays:
MV4-11 cells = experiment: Growth inhibition, MTS assay, MV4-11; type: cell-based, Human; details: MTS cell viability, read-out: MV4-11 ED50
Description: (§1) The following cell lines, were obtained and used in tests as outlined below: • Human myelomonocytic, biphenotypic leukemia MV4-11 cells (harboring a Flt3-ITD mutation); • Human Acute Myeloid Leukemia MOLM16 cells; • Human Acute Myeloid Leukemia MOLM13 cells (harboring a Flt3-ITD mutation); • Human Myeloid Leukemia KG-1 cells; • Human erythroleukemia HEL92 cells; • Human mantle cell lymphoma Jeko-1 cells; • Human hepatocellular carcinoma HepG2 cells; and • Human colon adenocarcinoma SW-480 cells.
(§2) The assays were carried out according to the following protocol, which is described as an example for the MV4-11 cells:
(§3) Ten thousand MV4-11 cells were inoculated into each well of a 96-well microplate (manufactured by Corning Corp.) using Iscove's MDM medium (culture medium) containing 10% fetal calf serum (FCS). The same day, a dimethyl sulfoxide (DMSO) solution of each test compound prepared in a concentration of 10 mmol/L was further diluted with DMSO to the desired concentrations (0.1, 0.5, 1, 2.5, 5 and 10 micromol/L), and the diluted solution was added to each well. The individual wells were further cultured in 5% carbon dioxide at 37° C. for 72 hours. […] Briefly, 10 μl MTS (3-(4,5-Dimethyl-2-thiazolyl)-5-(carboxymethoxyphenyl)-2-(4-sulfophenyl)-2H-tetrazolium was added to each well, and culturing was performed in 5% carbon dioxide at 37° C. for 2 hours. After this incubation and using a microplate spectrophotometer (Synergy 2 multi-mode microplate reader (BioTek)), the absorbance of each well was measured at 490 nm. The value for cells not incubated with a test compound was designated as 100%. By comparing these values with the absorbance difference obtained at the well in which each test compound was added, the cell viability (% viability) after treatment with the test compound was calculated.

Pim-3 = Pim-3 (Homo sapiens (Human), UniProt Q86V86); experiment: ADP-Glo Kinase Assay, Pim-3; type: biochemical; details: 1 μM compound; for inhibition at 1 µM: read-out: Pim-3 % INH (1 μM)
Method: (§4) Compounds of the present invention were tested for their inhibitory activity against Pim-1, Pim-2, Pim-3, Flt3 wt, Flt3 ITD, CDK2/E and DYRK1. The testing of the compounds was carried out using the ADP-Glo™ Kinase Assay from Promega Corporation (Madison, Wis., USA).
(§5) The ADP-Glo™ Kinase Assay is a luminescent ADP detection assay to measure kinase activity by quantifying the amount of ADP produced during a kinase reaction. The kinase assay is performed in kinase assay buffer (5 mM MOPS, pH 7.5, 5 mM MgCl2, 0.4 mM EDTA, 1.5 mM DTT). Test samples initially dissolved in DMSO at 10 mM were diluted with the assay buffer to 1000 nM. A 30 μL volume/well of a mixture of substrates containing ATP (final ATP concentration in each kinase assay was equal to its apparent ATP Km).
(§6) The assay was performed in two steps: first, after the kinase reaction, an equal volume of ADP-Glo™ Reagent was added to terminate the kinase reaction and deplete the remaining ATP. Second, the Kinase Detection Reagent was added to simultaneously convert ADP to ATP and allowed the newly synthesized ATP to be measured using a luciferase/luciferin reaction. The luminescent signal generated was proportional to the ADP concentration produced and was correlated with kinase activity. A microplate spectrophotometer (Synergy 2 multi-mode microplate reader [BioTek]) was used for detecting the luminescence. The data was normalized and the percent of inhibition was obtained according to the following equation: […]

Pim-1 = Pim-1 (Homo sapiens (Human), UniProt P11309); experiment: ADP-Glo Kinase Assay, Pim-1; type: biochemical; details: 1 μM compound; for inhibition at 1 µM: read-out: Pim-1 % INH (1 μM)
Method: as §4, §5, §6

Pim-2 = Pim-2 (Homo sapiens (Human), UniProt Q9P1W9); experiment: ADP-Glo Kinase Assay, Pim-2; type: biochemical; details: 1 μM compound; for inhibition at 1 µM: read-out: Pim-2 % INH (1 μM)
Method: as §4, §5, §6

HEL92 cells = experiment: Growth inhibition, MTS assay, HEL92; type: cell-based, Human; details: MTS cell viability, read-out: HEL92 ED50
Description: as §1, §2, §3

FLT3wt = FLT3wt (Homo sapiens (Human), UniProt P36888); experiment: ADP-Glo Kinase Assay, Flt3 wt; type: biochemical; details: 1 μM compound; for inhibition at 1 µM: read-out: Flt3wt % INH (1 μM)
Method: as §4, §5, §6

HepG2 cells = experiment: Growth inhibition, MTS assay, HepG2; type: cell-based, Human; details: MTS cell viability, read-out: HepG2 ED50
Description: as §1, §2, §3

CDK2/E = CDK2/E (Homo sapiens (Human), UniProt P24941); experiment: ADP-Glo Kinase Assay, CDK2/E; type: biochemical; details: 1 μM compound; for inhibition at 1 µM: read-out: CDK2/E % INH (1 μM)
Method: as §4, §5, §6

DYRK1 = DYRK1 (Homo sapiens (Human), UniProt Q13627); experiment: ADP-Glo Kinase Assay, DYRK1; type: biochemical; details: 1 μM compound; for inhibition at 1 µM: read-out: DYRK1A % INH (1 μM)
Method: as §4, §5, §6

Pim-2, sequence (Q9P1W9 whole entry): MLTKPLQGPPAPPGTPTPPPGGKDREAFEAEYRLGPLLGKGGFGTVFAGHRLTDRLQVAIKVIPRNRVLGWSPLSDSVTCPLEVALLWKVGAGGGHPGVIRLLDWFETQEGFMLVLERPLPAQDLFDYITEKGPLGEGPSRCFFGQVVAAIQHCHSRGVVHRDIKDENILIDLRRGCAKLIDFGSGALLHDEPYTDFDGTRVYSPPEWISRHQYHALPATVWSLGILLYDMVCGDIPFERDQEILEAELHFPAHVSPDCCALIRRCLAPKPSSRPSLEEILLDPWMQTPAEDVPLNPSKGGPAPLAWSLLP
Pim-1, sequence (P11309 whole entry): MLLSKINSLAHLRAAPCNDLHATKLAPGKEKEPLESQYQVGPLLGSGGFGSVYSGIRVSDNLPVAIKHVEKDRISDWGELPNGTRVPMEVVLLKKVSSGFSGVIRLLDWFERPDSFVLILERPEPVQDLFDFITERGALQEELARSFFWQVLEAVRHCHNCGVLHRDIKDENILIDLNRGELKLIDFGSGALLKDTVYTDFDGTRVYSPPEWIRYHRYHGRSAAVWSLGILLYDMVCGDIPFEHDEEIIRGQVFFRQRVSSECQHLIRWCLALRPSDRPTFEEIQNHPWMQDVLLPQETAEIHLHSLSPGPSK
FLT3wt, sequence (P36888 27-993): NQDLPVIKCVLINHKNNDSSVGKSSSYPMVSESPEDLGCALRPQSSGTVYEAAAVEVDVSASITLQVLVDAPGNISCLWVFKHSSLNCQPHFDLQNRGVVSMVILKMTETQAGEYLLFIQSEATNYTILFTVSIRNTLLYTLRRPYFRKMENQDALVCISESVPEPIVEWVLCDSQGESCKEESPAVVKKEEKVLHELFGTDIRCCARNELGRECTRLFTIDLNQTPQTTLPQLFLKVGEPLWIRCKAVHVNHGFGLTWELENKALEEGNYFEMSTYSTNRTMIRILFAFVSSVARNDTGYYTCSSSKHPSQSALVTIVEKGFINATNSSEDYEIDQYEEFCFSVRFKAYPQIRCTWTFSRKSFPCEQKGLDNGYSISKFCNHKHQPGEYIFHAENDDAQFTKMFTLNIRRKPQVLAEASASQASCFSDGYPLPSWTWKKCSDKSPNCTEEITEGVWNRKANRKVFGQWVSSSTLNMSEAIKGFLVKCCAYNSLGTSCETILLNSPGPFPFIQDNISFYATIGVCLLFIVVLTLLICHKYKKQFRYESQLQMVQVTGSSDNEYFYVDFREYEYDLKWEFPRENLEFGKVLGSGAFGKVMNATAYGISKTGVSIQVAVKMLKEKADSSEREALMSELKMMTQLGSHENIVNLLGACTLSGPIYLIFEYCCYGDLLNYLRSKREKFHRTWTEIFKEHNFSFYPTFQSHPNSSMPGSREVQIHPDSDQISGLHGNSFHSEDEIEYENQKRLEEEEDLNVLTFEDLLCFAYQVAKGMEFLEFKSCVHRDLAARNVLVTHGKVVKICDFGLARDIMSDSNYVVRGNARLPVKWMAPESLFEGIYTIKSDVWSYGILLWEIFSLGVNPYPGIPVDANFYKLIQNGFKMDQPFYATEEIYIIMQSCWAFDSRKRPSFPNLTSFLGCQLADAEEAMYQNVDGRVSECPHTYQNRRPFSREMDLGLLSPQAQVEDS

## CC(C)Cn1c(N2CCC[C@@H](N)C2)nc2c([N+](=O)[O-])c(Br)c(Br)cc21.Cl [Example 1AU]
MV4-11 cells; 72 hours
  IC50: 2400 nM
Pim-3
  Pim-3 % INH (1 μM): 68%
Pim-1
  Pim-1 % INH (1 μM): >95%
Pim-2
  Pim-2 % INH (1 μM): 52%
HEL92 cells; 72 hours
  IC50: 5800 nM
FLT3wt
  Flt3wt % INH (1 μM): 7%
HepG2 cells; 72 hours
  IC50: 1900 nM
CDK2/E
  CDK2/E % INH (1 μM): <5%

## CC(C)n1c(NC2CCNC2)nc2c([N+](=O)[O-])c(Br)c(Br)cc21 (stereo not drawn) [Example 1BA]
MV4-11 cells; Homo sapiens, MV4-11, 72 h
  IC50: 1100 nM
Pim-3
  inhibition at 1 µM: 82%
Pim-1
  inhibition at 1 µM: > 95%
Pim-2
  inhibition at 1 µM: 51%
HEL92 cells; Homo sapiens, 72 h
  IC50: 6900 nM
DYRK1
  inhibition at 1 µM: 52%
FLT3wt
  inhibition at 1 µM: 15%
HepG2 cells; Homo sapiens, HepG2, 72 h
  IC50: 1900 nM
CDK2/E
  inhibition at 1 µM: 6%

## CC(O)Cn1c(N2CCNCC2)nc2c([N+](=O)[O-])c(Br)c(Br)cc21 (stereo not drawn) [Example 1BS]
MV4-11 cells; Homo sapiens, MV4-11, 72 h
  IC50: 900 nM
Pim-3
  inhibition at 1 µM: 48%
Pim-1
  inhibition at 1 µM: > 95%
Pim-2
  inhibition at 1 µM: 21%
HEL92 cells; Homo sapiens, 72 h
  IC50: 4600 nM
DYRK1
  inhibition at 1 µM: 66%
FLT3wt
  inhibition at 1 µM: 39%
HepG2 cells; Homo sapiens, HepG2, 72 h
  IC50: 3600 nM
CDK2/E
  inhibition at 1 µM: 21%

## CC(C)n1c(NC2CCCNC2)nc2c(C#N)c(Br)c(Br)cc21 (stereo not drawn) [Example 1BT]
MV4-11 cells; Homo sapiens, MV4-11, 72 h
  IC50: 500 nM
Pim-3
  inhibition at 1 µM: 56%
Pim-1
  inhibition at 1 µM: 70%
Pim-2
  inhibition at 1 µM: 16%
HEL92 cells; Homo sapiens, 72 h
  IC50: 5700 nM
DYRK1
  inhibition at 1 µM: 22%
FLT3wt
  inhibition at 1 µM: 23%
HepG2 cells; Homo sapiens, HepG2, 72 h
  IC50: 1200 nM
CDK2/E
  inhibition at 1 µM: 26%

## CC(C)n1c(N2CCC[C@H](N)C2)nc2c(C#N)c(Br)c(Br)cc21 [Example 1BV]
MV4-11 cells; 72 hours
  IC50: 5100 nM
Pim-3
  Pim-3 % INH (1 μM): 91%
Pim-1
  Pim-1 % INH (1 μM): >95%
Pim-2
  Pim-2 % INH (1 μM): 82%
HEL92 cells; Homo sapiens, 72 h
  IC50: 5300 nM
DYRK1
  DYRK1A % INH (1 μM): 80%
FLT3wt
  Flt3wt % INH (1 μM): 39%
HepG2 cells; 72 hours
  IC50: 2900 nM
CDK2/E
  CDK2/E % INH (1 μM): 11%

## O=[N+]([O-])c1c(Br)c(Br)cc2c1nc(N[C@@H]1CCCNC1)n2CC1CC1 [Example 1CH]
MV4-11 cells; 72 hours
  IC50: 5000 nM
Pim-3
  Pim-3 % INH (1 μM): 32%
Pim-1
  Pim-1 % INH (1 μM): 82%
Pim-2
  Pim-2 % INH (1 μM): 10%
HEL92 cells; 72 hours
  IC50: 5700 nM
DYRK1
  DYRK1A % INH (1 μM): 14%
FLT3wt
  Flt3wt % INH (1 μM): 17%
HepG2 cells; 72 hours
  IC50: 2200 nM
CDK2/E
  CDK2/E % INH (1 μM): 9%

## O=[N+]([O-])c1c(Br)c(Br)cc2c1nc(N[C@H]1CCNC1)n2CC1CC1 [Example 1CI]
MV4-11 cells; 72 hours
  IC50: 1600 nM
Pim-3
  Pim-3 % INH (1 μM): 75%
Pim-1
  Pim-1 % INH (1 μM): >95%
Pim-2
  Pim-2 % INH (1 μM): 64%
HEL92 cells; 72 hours
  IC50: 6100 nM
DYRK1
  DYRK1A % INH (1 μM): 57%
FLT3wt
  Flt3wt % INH (1 μM): 19%
HepG2 cells; 72 hours
  IC50: 1400 nM
CDK2/E
  CDK2/E % INH (1 μM): 10%

## CCn1c(N2CCC[C@H](N)C2)nc2c([N+](=O)[O-])c(Cl)c(Cl)cc21 [Example 1CT]
MV4-11 cells; 72 hours
  IC50: 2700 nM
Pim-3
  Pim-3 % INH (1 μM): 64%
Pim-1
  Pim-1 % INH (1 μM): >95%
Pim-2
  Pim-2 % INH (1 μM): 28%
DYRK1
  DYRK1A % INH (1 μM): 22%
FLT3wt
  Flt3wt % INH (1 μM): 7%
HepG2 cells; 72 hours
  IC50: 6000 nM
CDK2/E
  CDK2/E % INH (1 μM): 6%

## O=[N+]([O-])c1c(Br)c(Br)cc2c1nc(N1CCNCC1)n2CC1CCC1 [Example 2F, 5,6-dibromo-1-(cyclobutylmethyl)-4-nitro-2-(piperazin-1-yl)-1H-1,3-benzodiazole hydrochloride]
MV4-11 cells; Homo sapiens, MV4-11, 72 h
  IC50: 300 nM
Pim-3
  inhibition at 1 µM: 89%
Pim-1
  inhibition at 1 µM: > 95%
Pim-2
  inhibition at 1 µM: 70%
HEL92 cells; Homo sapiens, 72 h
  IC50: 2100 nM
DYRK1
  inhibition at 1 µM: > 95%
FLT3wt
  inhibition at 1 µM: 78%
HepG2 cells; Homo sapiens, HepG2, 72 h
  IC50: 1800 nM
CDK2/E
  inhibition at 1 µM: 15%

## CCn1c(N2CCNCC2)nc2c(C(F)(F)F)c(Br)c(Br)cc21 [Example 9A, 5,6-dibromo-1-ethyl-2-(piperazin-1-yl)-4-(trifluoromethyl)-1H-1,3-benzodiazolehydrochloride]
MV4-11 cells; Homo sapiens, MV4-11, 72 h
  IC50: 300 nM
Pim-3
  inhibition at 1 µM: 66%
Pim-1
  inhibition at 1 µM: > 95%
Pim-2
  inhibition at 1 µM: 15%
DYRK1
  inhibition at 1 µM: 77%
FLT3wt
  inhibition at 1 µM: 76%
HepG2 cells; Homo sapiens, HepG2, 72 h
  IC50: 1500 nM
CDK2/E
  inhibition at 1 µM: < 5%

## COC(CN)CNc1nc2c(C#N)c(Br)c(Br)cc2n1C(C)C (stereo not drawn) [Example 22AC, 2-[(3-amino-2-methoxypropyl)amino]-5,6-dibromo-1-(propan-2-yl)-1H-1,3-benzodiazole-4-carbonitrile]
MV4-11 cells; Homo sapiens, MV4-11, 72 h
  IC50: 4100 nM
Pim-3
  inhibition at 1 µM: 61%
Pim-1
  inhibition at 1 µM: > 95%
Pim-2
  inhibition at 1 µM: 30%
DYRK1
  inhibition at 1 µM: 16%
FLT3wt
  inhibition at 1 µM: 7%
HepG2 cells; Homo sapiens, HepG2, 72 h
  IC50: 7200 nM
CDK2/E
  inhibition at 1 µM: < 5%

## CCn1c(Nc2ccccc2N)nc2c([N+](=O)[O-])c(Br)c(Br)cc21 [Example 22N, 1-N-(5,6-dibromo-1-ethyl-4-nitro-1H-1,3-benzodiazol-2-yl)benzene-1,2-diamine]
MV4-11 cells; Homo sapiens, MV4-11, 72 h
  IC50: 2600 nM
Pim-3
  inhibition at 1 µM: 44%
Pim-1
  inhibition at 1 µM: 82%
Pim-2
  inhibition at 1 µM: 23%
DYRK1
  inhibition at 1 µM: 21%
FLT3wt
  inhibition at 1 µM: < 5%
HepG2 cells; Homo sapiens, HepG2, 72 h
  IC50: 4200 nM
CDK2/E
  inhibition at 1 µM: < 5%

## CC(C)n1c(N2CCN[C@@H](C)C2)nc2c([N+](=O)[O-])c(Br)c(Br)cc21 [Example 22Z, 5,6-dibromo-2-[(3S)-3-methylpiperazin-1-yl]-4-nitro-1-(propan-2-yl)-1H-1,3-benzodiazole]
MV4-11 cells; Homo sapiens, MV4-11, 72 h
  IC50: 700 nM
Pim-3
  inhibition at 1 µM: 85%
Pim-1
  inhibition at 1 µM: > 95%
Pim-2
  inhibition at 1 µM: 37%
HEL92 cells; Homo sapiens, 72 h
  IC50: 2400 nM
DYRK1
  inhibition at 1 µM: 63%
FLT3wt
  inhibition at 1 µM: 73%
HepG2 cells; Homo sapiens, HepG2, 72 h
  IC50: 1600 nM
